Experimental data as given in ChEMBL document CHEMBL3351476, “The discovery of I-BET726 (GSK1324726A), a potent tetrahydroquinoline ApoA1 up-regulator and selective BET bromodomain inhibitor” (J Med Chem, 2014).

How the values were obtained:
[1] = target: Chromatin remodeling regulator CECR2 (Homo sapiens, UniProt Q9BXF3); assay: Inhibition of human CECR2 by BROMOscan assay
[2] = target: Bromodomain testis-specific protein (Homo sapiens, UniProt Q58F21); assay: Inhibition of BRDT (unknown origin) by TR-FRET assay
[3] = target: Cytochrome P450 1A2 (Homo sapiens, UniProt P05177); assay: Inhibition of CYP1A2 (unknown origin) expressed in Escherichia coli bactosomes using ethoxyresorufin as substrate after 10 mins by fluorescence assay; assay type: ADME
[4] = system: Mus musculus; assay: Antiinflammatory activity in septic shock Balb/c mouse model assessed as mouse survival at 10 mg/kg, iv as single dose post LPS challenge measured after 5 days post treatment relative to vehicle-treated control; assay type: functional; conditions: 120 h
[5] = target: Transcription intermediary factor 1-alpha (Homo sapiens, UniProt O15164); assay: Inhibition of human TIF1alpha bromodomain by BROMOscan assay
[6] = Volume of distribution at steady state in rat at 1 mg/kg, iv as infusion and 3 mg/kg, po; assay type: ADME, organism-based; conditions: in vivo, read-out: Vdss
[7] = target: ATPase family AAA domain-containing protein 2B (Homo sapiens, UniProt Q9ULI0); assay: Inhibition of human ATAD2B by BROMOscan assay
Chain of ATPase family AAA domain-containing protein 2B (Q9ULI0 whole entry, the tested form may be a part): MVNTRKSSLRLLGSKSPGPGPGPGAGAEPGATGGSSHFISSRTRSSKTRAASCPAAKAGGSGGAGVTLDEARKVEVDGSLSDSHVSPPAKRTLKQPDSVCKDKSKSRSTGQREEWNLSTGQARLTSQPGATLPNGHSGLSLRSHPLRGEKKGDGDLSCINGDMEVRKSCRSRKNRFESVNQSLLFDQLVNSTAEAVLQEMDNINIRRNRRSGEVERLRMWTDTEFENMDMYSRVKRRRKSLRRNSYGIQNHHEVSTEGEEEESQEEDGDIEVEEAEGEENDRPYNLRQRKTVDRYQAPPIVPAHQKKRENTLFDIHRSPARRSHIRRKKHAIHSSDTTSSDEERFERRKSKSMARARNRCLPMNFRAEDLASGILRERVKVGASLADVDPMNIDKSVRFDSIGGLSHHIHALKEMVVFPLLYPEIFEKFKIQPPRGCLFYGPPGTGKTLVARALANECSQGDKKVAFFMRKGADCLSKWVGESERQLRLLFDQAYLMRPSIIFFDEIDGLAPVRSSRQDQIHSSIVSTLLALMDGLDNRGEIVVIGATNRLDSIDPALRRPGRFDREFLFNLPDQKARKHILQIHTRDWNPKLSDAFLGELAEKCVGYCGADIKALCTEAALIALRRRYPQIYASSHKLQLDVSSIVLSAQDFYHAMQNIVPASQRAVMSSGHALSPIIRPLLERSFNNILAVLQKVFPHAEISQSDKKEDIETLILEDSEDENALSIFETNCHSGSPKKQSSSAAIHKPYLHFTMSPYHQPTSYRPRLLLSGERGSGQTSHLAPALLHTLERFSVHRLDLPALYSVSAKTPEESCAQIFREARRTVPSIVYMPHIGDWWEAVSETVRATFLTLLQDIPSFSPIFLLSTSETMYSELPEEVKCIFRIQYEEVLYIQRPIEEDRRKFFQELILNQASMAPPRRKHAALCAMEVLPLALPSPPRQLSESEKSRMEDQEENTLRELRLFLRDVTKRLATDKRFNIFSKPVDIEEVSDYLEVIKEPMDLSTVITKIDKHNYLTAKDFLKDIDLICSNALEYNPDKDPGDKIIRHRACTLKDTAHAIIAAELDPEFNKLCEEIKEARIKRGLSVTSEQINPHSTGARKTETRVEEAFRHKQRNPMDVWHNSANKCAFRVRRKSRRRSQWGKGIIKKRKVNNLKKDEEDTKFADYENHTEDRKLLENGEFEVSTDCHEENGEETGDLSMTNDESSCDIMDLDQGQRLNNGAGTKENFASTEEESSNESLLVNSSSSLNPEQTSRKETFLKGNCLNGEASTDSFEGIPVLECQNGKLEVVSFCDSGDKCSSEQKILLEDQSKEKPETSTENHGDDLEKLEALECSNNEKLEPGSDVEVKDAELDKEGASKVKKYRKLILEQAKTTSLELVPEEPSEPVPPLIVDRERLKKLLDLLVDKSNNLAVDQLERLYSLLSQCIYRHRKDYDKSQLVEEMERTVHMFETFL

[8] = Clearance in Cynomolgus monkey hepatocytes assessed per gram of tissue at 1 uM by LC-MS/MS analysis; assay type: ADME, cell-based, Macaca fascicularis, Hepatocyte
[9] = target: Protein polybromo-1 (Homo sapiens, UniProt Q86U86); assay: Inhibition of human PBRM1 bromodomain 5 by BROMOscan assay
Chain of Protein polybromo-1 (Q86U86 whole entry): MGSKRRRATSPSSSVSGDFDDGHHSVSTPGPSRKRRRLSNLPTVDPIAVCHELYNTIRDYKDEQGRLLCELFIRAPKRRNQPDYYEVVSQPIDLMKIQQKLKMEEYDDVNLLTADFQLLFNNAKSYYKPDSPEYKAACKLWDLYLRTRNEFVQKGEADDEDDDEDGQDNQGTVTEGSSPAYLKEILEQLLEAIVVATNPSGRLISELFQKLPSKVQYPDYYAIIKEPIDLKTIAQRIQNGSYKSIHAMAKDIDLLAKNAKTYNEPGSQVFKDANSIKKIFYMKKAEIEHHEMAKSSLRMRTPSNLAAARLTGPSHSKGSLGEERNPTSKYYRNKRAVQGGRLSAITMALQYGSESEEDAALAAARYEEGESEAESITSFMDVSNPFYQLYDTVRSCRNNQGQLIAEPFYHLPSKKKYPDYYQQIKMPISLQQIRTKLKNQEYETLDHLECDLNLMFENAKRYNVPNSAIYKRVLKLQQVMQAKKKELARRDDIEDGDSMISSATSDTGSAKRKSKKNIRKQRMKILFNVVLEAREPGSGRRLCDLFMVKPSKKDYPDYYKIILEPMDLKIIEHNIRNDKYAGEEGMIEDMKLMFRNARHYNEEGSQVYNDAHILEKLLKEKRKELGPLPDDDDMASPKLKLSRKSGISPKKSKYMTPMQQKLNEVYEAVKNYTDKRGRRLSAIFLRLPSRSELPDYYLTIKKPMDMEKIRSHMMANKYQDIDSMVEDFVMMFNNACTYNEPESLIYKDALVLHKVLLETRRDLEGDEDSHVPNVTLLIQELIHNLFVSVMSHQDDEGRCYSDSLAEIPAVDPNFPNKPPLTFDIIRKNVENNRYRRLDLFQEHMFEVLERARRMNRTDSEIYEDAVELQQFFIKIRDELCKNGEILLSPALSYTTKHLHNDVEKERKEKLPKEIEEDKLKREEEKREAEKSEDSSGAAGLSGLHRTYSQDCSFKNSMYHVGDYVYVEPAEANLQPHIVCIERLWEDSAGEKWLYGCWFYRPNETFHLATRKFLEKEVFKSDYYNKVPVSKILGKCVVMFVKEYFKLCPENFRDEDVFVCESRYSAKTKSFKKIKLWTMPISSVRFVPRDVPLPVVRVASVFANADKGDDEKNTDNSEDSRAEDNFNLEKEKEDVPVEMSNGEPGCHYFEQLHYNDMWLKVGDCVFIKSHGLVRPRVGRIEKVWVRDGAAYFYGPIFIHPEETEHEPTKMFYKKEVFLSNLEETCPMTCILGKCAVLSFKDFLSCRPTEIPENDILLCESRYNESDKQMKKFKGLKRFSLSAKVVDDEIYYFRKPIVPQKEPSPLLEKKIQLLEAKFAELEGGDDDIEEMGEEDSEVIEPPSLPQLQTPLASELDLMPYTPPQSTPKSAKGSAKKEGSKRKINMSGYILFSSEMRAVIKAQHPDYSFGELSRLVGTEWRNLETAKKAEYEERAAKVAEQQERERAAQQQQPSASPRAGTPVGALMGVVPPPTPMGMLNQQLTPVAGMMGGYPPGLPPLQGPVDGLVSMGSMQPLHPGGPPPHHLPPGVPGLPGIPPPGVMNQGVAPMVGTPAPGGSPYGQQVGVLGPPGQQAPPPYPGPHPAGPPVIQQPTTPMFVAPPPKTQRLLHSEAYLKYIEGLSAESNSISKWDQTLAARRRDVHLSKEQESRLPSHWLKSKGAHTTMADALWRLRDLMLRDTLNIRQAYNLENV

[10] = Blood clearance in Balb/c mouse at 10 mg/kg, iv as bolus dose; assay type: ADME, organism-based; design: dose 10 mg/kg, route intravenous; conditions: whole blood
[11] = system: PBMC; assay: Inhibition of LPS-induced IL6 production in human PBMC after 18 to 24 hrs by immunoassay; assay type: functional, cell-based
[12] = system: Hepatocyte; assay: Clearance in rat hepatocytes assessed per gram of tissue at 1 uM by LC-MS/MS analysis; assay type: ADME, cell-based
[13] = Terminal half life in Balb/c mouse at 10 mg/kg, iv as bolus dose; assay type: ADME, organism-based; design: dose 10 mg/kg, route intravenous; conditions: in vivo, read-out: beta t1/2 (converted)
[14] = target: T1, Bromodomain-containing protein 2 (Homo sapiens, UniProt P25440); assay: Binding affinity to His6-tagged BRD2 (1 to 473 aa) (unknown origin) by SPR method
T1 sequence (P25440 whole entry, the tested form may be a part): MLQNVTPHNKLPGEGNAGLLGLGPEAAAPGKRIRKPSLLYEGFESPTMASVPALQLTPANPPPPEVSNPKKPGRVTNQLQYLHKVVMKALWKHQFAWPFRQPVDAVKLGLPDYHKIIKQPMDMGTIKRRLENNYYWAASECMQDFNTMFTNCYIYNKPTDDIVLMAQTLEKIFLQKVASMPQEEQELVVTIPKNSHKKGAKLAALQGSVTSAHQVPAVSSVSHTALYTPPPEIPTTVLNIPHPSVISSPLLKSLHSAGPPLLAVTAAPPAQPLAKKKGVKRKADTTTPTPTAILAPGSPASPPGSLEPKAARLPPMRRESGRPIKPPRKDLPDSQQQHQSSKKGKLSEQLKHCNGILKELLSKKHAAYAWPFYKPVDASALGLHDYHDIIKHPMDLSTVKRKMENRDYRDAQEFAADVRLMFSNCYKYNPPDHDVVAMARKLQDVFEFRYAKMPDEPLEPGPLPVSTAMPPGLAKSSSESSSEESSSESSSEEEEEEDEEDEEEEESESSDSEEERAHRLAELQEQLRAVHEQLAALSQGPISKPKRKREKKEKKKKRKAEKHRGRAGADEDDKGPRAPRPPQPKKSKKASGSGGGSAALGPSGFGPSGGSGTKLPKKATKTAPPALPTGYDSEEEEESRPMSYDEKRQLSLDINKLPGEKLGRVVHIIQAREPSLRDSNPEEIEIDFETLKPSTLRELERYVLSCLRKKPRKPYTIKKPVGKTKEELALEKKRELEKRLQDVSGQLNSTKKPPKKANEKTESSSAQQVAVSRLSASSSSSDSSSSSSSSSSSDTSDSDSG

[15] = Oral bioavailability in Cynomolgus monkey at 2 mg/kg; assay type: ADME, organism-based, Macaca fascicularis; conditions: in vivo
[16] = Volume of distribution at steady state in Cynomolgus monkey at 1 mg/kg, iv as infusion and 3 mg/kg, po; assay type: ADME, organism-based, Macaca fascicularis; conditions: in vivo, read-out: Vdss
[17] = target: Transcription initiation factor TFIID subunit 1-like (Homo sapiens, UniProt Q8IZX4); assay: Inhibition of human TAF1L by BROMOscan assay
[18] = Fraction unbound in rat blood by rapid equilibrium dialysis method; assay type: ADME, tissue-based
[19] = AUC (0 to t) in rat at 3 mg/kg, po; assay type: ADME, organism-based; design: dose 3 mg/kg, route oral; conditions: plasma
[20] = Terminal half life in beagle dog at 1 mg/kg, iv as infusion; assay type: ADME, organism-based, Canis lupus familiaris; design: dose 1 mg/kg, route intravenous; conditions: in vivo, read-out: beta t1/2 (converted)
[21] = target: T2, Bromodomain-containing protein 3 (Homo sapiens, UniProt Q15059); assay: Binding affinity to His6-tagged BRD3 (1 to 475 aa) (unknown origin) by SPR method
T2 sequence (Q15059 whole entry, the tested form may be a part): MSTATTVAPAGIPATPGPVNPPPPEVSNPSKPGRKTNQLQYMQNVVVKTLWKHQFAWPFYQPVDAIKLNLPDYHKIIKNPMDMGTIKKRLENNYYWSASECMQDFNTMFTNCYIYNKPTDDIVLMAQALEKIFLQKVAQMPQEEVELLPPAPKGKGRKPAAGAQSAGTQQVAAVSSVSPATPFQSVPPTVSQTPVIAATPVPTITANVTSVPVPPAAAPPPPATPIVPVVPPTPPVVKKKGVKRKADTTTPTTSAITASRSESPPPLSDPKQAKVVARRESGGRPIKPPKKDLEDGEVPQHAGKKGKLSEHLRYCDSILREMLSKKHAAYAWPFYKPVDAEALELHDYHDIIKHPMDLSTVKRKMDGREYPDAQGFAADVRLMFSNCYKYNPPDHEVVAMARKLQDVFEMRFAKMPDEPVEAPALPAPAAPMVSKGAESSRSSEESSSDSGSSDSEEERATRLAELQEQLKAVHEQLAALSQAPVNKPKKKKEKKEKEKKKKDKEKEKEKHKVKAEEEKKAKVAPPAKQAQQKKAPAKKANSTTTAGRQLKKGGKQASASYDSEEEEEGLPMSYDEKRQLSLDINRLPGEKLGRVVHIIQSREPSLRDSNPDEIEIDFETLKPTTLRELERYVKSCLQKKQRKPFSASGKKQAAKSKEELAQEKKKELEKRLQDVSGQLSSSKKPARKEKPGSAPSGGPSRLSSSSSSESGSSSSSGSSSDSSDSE

[22] = target: Bromodomain adjacent to zinc finger domain protein 2B (Homo sapiens, UniProt Q9UIF8); assay: Inhibition of BAZ2B (unknown origin) by BROMOscan assay
[23] = system: HepG2; assay: Upregulation of ApoA1 in human HepG2 cells after 16 hrs by luciferase reporter assay relative to control; assay type: functional
[24] = target: T1, Bromodomain-containing protein 2; assay: Displacement of biotinylated tetra-acetylated histone H4 from His6-tagged BRD2 (1 to 473 aa) (unknown origin) after 1 hr by TR-FRET assay
[25] = target: T2, Bromodomain-containing protein 3; assay: Inhibition of human BRD3 bromodomain 2 by BROMOscan assay
[26] = target: Bromodomain-containing protein 9 (Homo sapiens, UniProt Q9H8M2); assay: Inhibition of human BRD9 by BROMOscan assay

CC(=O)N1c2ccc(-c3ccc(C(=O)O)cc3)cc2[C@H](Nc2ccc(Cl)cc2)C[C@@H]1C
IC50 [1]: > 31.6 µM | IC50 [2]: 0.0501 µM | IC50 [3]: > 33 µM | survival at 10 mg/kg [4]: 56% | IC50 [5]: 10 µM | Vd [6]: 2 L/kg | IC50 [7]: > 31.6 µM | CLH [8]: < 0.85 mL/min/g | IC50 [9]: > 31.6 µM | clearance [10]: 3.1 mL/min/kg | IC50 [11]: 0.0501 µM | CLH [12]: < 0.85 mL/min/g | half-life [13]: 3.6 h | Kd [14]: 0.025 µM | bioavailability [15]: 103% | Vd [16]: 1 L/kg | IC50 [17]: 31.6 µM | fraction unbound [18]: 0.009 | AUC(0-t) [19]: 539 ng·h/mL | half-life [20]: 1.8 h | Kd [21]: 0.02 µM | IC50 [22]: > 31.6 µM | pEC170 [23]: 8.1 | IC50 [24]: 0.158 µM | IC50 [25]: 0.002 µM | IC50 [26]: > 31.6 µM
